Test results: patent publication US20250360177A1, “FERMENTATION PRODUCT FOR THE TREATMENT OF INFLAMMATORY DISEASES” (ALFASIGMA S.P.A., priority 2022, published 2025)

Tests used:
IL-10 = IL-10 ELISA in LPS-stimulated RAW264.7 macrophages; assay type: cell-based; conditions: LPS 24 hours
Procedure: Each solution was centrifuged for 20 min at 2500 rpm, the insoluble residues discarded and the supernatant filtered on 0.22-μm PES filters. […] The cells were divided into 5 groups and each group was treated for 2 hours with […] of each of the Solutions obtained from the plant extracts (Sol. Ex1-Ex5). […] At the end of incubation, the supernatants were collected and analyzed by ELISA assay (Invitrogen kit) to detect the amount of IL-10.

[1] = test system: TNBS-induced colitis mice; test: TNBS-induced colitis in mice, comparison to VSL #3 and E. coli Nissle (Example 12); assay type: in vivo, C57BL/6 mice; conditions: TNBS 2 mg/mouse ir; 100 mg per kg mouse os, 4 days
Procedure: C57BL/6 Male mice aged 7-8 weeks (ENVIGO, Italy) were housed under standard laboratory conditions: light/dark cycles (12/12 hr), ambient temperature 20±2° C., 55% relative air humidity and food (Mucedola RF18) and water ad libitum.
Colitis was induced in the mice as previously described, using TNBS (Yang et al., Scientific Reports, 2016 6:29716).
After 3 h of colitis induction, each group of mice was orally administered with the corresponding treatment for 4 days. During the 4-day trial, the mice were routinely inspected for their body mass, and diarrhea. All mice were sacrificed by cervical dislocation for sample collection at the end of day 4.

[2] = test system: TNBS-induced ulcerative colitis mouse model; test: TNBS-induced ulcerative colitis in mice, plant extract solutions; assay type: in vivo, C57BL/6 mice; conditions: TNBS 2 mg/mouse i.r.; 100 mg/kg gavage; day 3
Procedure: Ulcerative colitis was induced in a mouse model by administration of 2,4,6-trinitrobenzenesulfonic acid (TNBS) (Yang et al., Scientific Reports, 2016 6: 29716). Male C57BL/6 mice aged 6-8 weeks were divided into groups of 8 mice each. Solutions obtained from the plant extracts (Sol. […] Ex-1 (Scutellaria baicalensis Georgi)/600μL/mouse per gavage • Group E: TNBS 2 mg/mouse in 100 μL i.r.+Sol. Ex-2 (Phaseolus radiatus)/[…]/mouse per gavage • Group F: TNBS 2 mg/mouse in 100 μL i.r.+Sol. Ex-3 (Curcuma longa)/600 μL/mouse per gavage • Group G: TNBS 2 mg/mouse in 100 μL i.r.+Sol. Ex-5 (Broccoli sprouts)/600 μL/mouse per gavage. Mice were sacrificed 6 h after the last administration by cervical dislocation.

IL-1beta mRNA = IL-1beta mRNA transcription in LPS-stimulated RAW264.7 macrophages (Real-Time PCR); assay type: cell-based; conditions: 0.1 mM, LPS 24 hours
Procedure: The anti-inflammatory activity of the fermentation product in lyophilic form of L. brevis DSM 33682 obtained in the presence of Phaseolus radiatus sprout extract (Lio-Prob1) according to Example 5, and the product obtained without Phaseolus radiatus sprout extract (Lio-Prob2) according to Example 6, were analyzed by means of determination of the amount of IL-1beta mRNA.
3×10^5 Cells/well of RAW264.7 macrophages (ATCC) were seeded on a 24-well plate.
Ten μl of lipopolysaccharide (LPS) from Sigma-Aldrich n.2630 (10 μg/mL) was added to each well and incubated at 37° C. in a 5% CO2 incubator for 24 hours.
At the end of incubation, macrophage RNA was extracted and analysed by Real-Time PCR to detect the gene transcription level of the proinflammatory cytokine IL-1beta, calculated as the mean value for the treated groups compared with macrophages treated with LPS alone. In particular, total RNA was isolated from each sample using the mini RNeasy kit (QiaGen GmbH, Hilden, Germany), and 1ug of total RNA was reverse transcribed by IScript™ cDNA Synthesis Kit (BioRad, Hercules, CA, USA). Real-time PCR was carried out by a BioRad CFX96 Touch™ Real-Time PCR Detection System using SsoAdvanced Universal SYBR Green super Mix (BioRad). The expression level of each mRNA was assessed using the ΔΔCT method, and Gapdh was used as housekeeping gene for normalization. The following primers were used.

[3] = test system: TNBS-induced ulcerative colitis mouse model; test: TNBS-induced ulcerative colitis in mice, DAI score and colon length (Example 6); assay type: in vivo, C57BL/6 mice; conditions: TNBS 2 mg/mouse i.r.; 100 mg/kg per gavage
Procedure: The efficacy of fermentation products of L. brevis DSM 33682 obtained in the presence of Phaseolus radiatus sprout extract (Lio-Prob1) or absence of the extract (Lio-Prob2) was determined by measurement of DAI score and colonic length. Male C57BL/6 mice (Envigo) aged 6-8 weeks (8 mice/group), ulcerative colitis was induced with 2,4,6-trinitrobenzenesulfonic acid (TNBS) (Yang et al., Scientific Reports, 2016 6:29716). […] Mice were sacrificed by cervical dislocation 6 h after the last administration. The disease activity index, expressed by DAI score, of C57BL/6 mice was measured according to the method reported by Yang et al., Scientific Reports, 2016 6:29716.

[4] = test system: TNF-α, IL-1β and IL-10 gene expression; test: Relative quantitative real-time PCR of colonic cells of TNBS-induced colitis mice; assay type: in vivo, C57BL/6 mice; conditions: Lio-Prob1 12 mg/kg or mesalazine 100 mg/kg orally 4 days
Procedure: RNA of colonic cells of C57BL/6 male mice treated according to Example 8 was isolated with Trizol (Life-technologies). […] BIO 65053). Real-time PCR was performed using SYBR green Master Mix (#1725150, Biorad). GAPDH was used as internal control. The relative transcription mRNA level was calculated.

## CC(=O)O [Acetate]
IL-10; 5 mM
  % IL-10 (vs LPS) ± SD: 199 ± 14%

## CCCC(=O)O [Butyrate]
IL-10; 0.62 mM
  % IL-10 (vs LPS) ± SD: 268 ± 71%

## Nc1ccc(O)c(C(=O)O)c1 [Mesalazine]
IL-10; 0.1 mM
  % IL-10 (vs LPS) ± SD: 216 ± 55%
IL-10; 0.2 mM
  % IL-10 (vs LPS) ± SD: 269 ± 18%
[1]
  BWL body weight loss % max: 4%
[2]
  colon length (mm) ± SE: 68 ± 1.9 mm
IL-1beta mRNA
  mRNA IL-1beta transcription inhibition compared to LPS treatment: 59%
[3]
  DAI score ± SE: 1.1 ± 0.5
  colon length (mm) ± SE: 66.6 ± 0.5 mm
[4]; colon of TNBS-induced acute colitis mice
  expression levels of pro-inflammatory genes, including TNF-α and IL-1β (in words): reduced the expression levels of pro-inflammatory genes
[4]; colon of TNBS-induced colitis mice
  expression of IL-10 (in words): increased

## CCC(=O)O [Propionate]
IL-10; 10 mM
  % IL-10 (vs LPS) ± SD: 135 ± 2%
